Measured values published in the NIST ThermoML archive (doi:10.1016/j.tca.2016.04.001).
± gives the expanded uncertainty stated by the source.

Experiment: xn = mol fraction of the nth substance listed
Details: 87 kPa, Liquid, Vibrating tube method

OCc1ccccc1 [benzenemethanol] + CC(=O)OC(C)(C)C
x1 = 1
Details	mass density [kg/m3]
293.15 K	1045.21 ± 1
298.15 K	1041.38 ± 1
303.15 K	1037.5 ± 1
308.15 K	1033.63 ± 1
313.15 K	1029.71 ± 1

OCc1ccccc1 [benzenemethanol] + CCOC(C)=O
mass density [kg/m3]
Details	293.15 K	298.15 K	303.15 K	308.15 K	313.15 K
x1 = 0.0452	909.04 ± 1.5	903.11 ± 1.5	897.12 ± 1.5	891.1 ± 1.5	885.03 ± 1.6
x1 = 0.1047	919.57 ± 1.5	913.81 ± 1.5	908.02 ± 1.5	902.18 ± 1.5	896.3 ± 1.5
x1 = 0.2008	935.91 ± 1.4	930.43 ± 1.4	924.91 ± 1.4	919.36 ± 1.5	913.77 ± 1.5
x1 = 0.3043	952.73 ± 1.4	947.53 ± 1.4	942.29 ± 1.4	937.02 ± 1.4	931.72 ± 1.4
x1 = 0.4	967.5 ± 1.4	962.53 ± 1.4	957.53 ± 1.4	952.49 ± 1.4	947.43 ± 1.4
x1 = 0.5017	982.41 ± 1.3	977.66 ± 1.4	972.89 ± 1.4	968.08 ± 1.4	963.26 ± 1.4
x1 = 0.6006	996.27 ± 1.3	991.73 ± 1.3	987.15 ± 1.3	982.56 ± 1.3	977.95 ± 1.3
x1 = 0.7013	1009.5 ± 1.3	1005.14 ± 1.3	1000.77 ± 1.3	996.37 ± 1.3	991.97 ± 1.3
x1 = 0.8074	1023 ± 1.3	1018.86 ± 1.3	1014.67 ± 1.3	1010.47 ± 1.3	1006.26 ± 1.3
x1 = 0.9042	1034.66 ± 1.2	1030.64 ± 1.2	1026.67 ± 1.3	1022.63 ± 1.3	1018.59 ± 1.3
x1 = 0.9537	1040.08 ± 1.2	1036.17 ± 1.2	1032.23 ± 1.2	1028.28 ± 1.2	1024.32 ± 1.2
x1 = 1	1045.21 ± 1	1041.38 ± 1	1037.5 ± 1	1033.63 ± 1	1029.71 ± 1

CCOC(C)=O [ethyl acetate] + OC(CCl)CCl
x2 = 0
Details	mass density [kg/m3]
293.15 K	900.71 ± 1
298.15 K	894.65 ± 1
303.15 K	888.52 ± 1
308.15 K	882.35 ± 1
313.15 K	876.12 ± 1

CCOC(C)=O [ethyl acetate] + OCc1ccccc1
x2 = 0
Details	mass density [kg/m3]
293.15 K	900.71 ± 1
298.15 K	894.65 ± 1
303.15 K	888.52 ± 1
308.15 K	882.35 ± 1
313.15 K	876.12 ± 1

C=COC(C)=O [vinyl acetate] + OC(CCl)CCl
x2 = 0
Details	mass density [kg/m3]
293.15 K	932.41 ± 1
298.15 K	926.01 ± 1
303.15 K	919.56 ± 1
308.15 K	913.07 ± 1
313.15 K	906.52 ± 1

C=COC(C)=O [vinyl acetate] + OCc1ccccc1
mass density [kg/m3]
Details	293.15 K	298.15 K	303.15 K	308.15 K	313.15 K
x2 = 0	932.41 ± 1	926.01 ± 1	919.56 ± 1	913.07 ± 1	906.52 ± 1
x2 = 0.0504	940.17 ± 1.4	934.2 ± 1.4	928.1 ± 1.4	922 ± 1.5	915.06 ± 1.4
x2 = 0.0954	947.04 ± 1.3	941.4 ± 1.3	935.7 ± 1.3	930 ± 1.4	922.62 ± 1.4
x2 = 0.1987	961.08 ± 1.3	955.4 ± 1.3	949.66 ± 1.3	943.89 ± 1.3	938.08 ± 1.4
x2 = 0.2999	974.18 ± 1.3	968.88 ± 1.3	963.51 ± 1.3	958.06 ± 1.3	952.57 ± 1.3
x2 = 0.3947	985.63 ± 1.2	980.52 ± 1.2	975.38 ± 1.3	970.21 ± 1.3	965 ± 1.3
x2 = 0.5005	997.61 ± 1.2	992.77 ± 1.2	987.91 ± 1.2	983.01 ± 1.2	978.09 ± 1.3
x2 = 0.5991	1008.19 ± 1.2	1003.62 ± 1.2	998.97 ± 1.2	994.32 ± 1.2	989.64 ± 1.2
x2 = 0.7047	1019.12 ± 1.2	1014.77 ± 1.2	1010.36 ± 1.2	1005.95 ± 1.2	1001.51 ± 1.2
x2 = 0.8037	1028.4 ± 1.2	1024.23 ± 1.2	1020.02 ± 1.2	1015.85 ± 1.2	1011.55 ± 1.2
x2 = 0.9067	1037.37 ± 1.1	1033.39 ± 1.2	1029.37 ± 1.2	1025.33 ± 1.2	1021.27 ± 1.2
